Measured values taken from patent US20160193179A1, “Treatment of Cardiovascular Risk in Diabetic Patients” (EVOLVA SA, priority 2012, published 2016).

Legend:
[1] = test system: COX-2, IL-6, IL-8, ICAM-1, VCAM-1, PTX3, MCP-1 mRNA expression in HUVEC; experiment: Real time RT-PCR of TNFα-induced mRNA expression in HUVEC; type: cell-based, human; details: for ICAM-1 mRNA expression induced by TNFα / PTX3 mRNA expression induced by TNFα: 1 ng/ml TNFα 6 h
Description: FIGS. 1 and 2A show the effects of Compound 3 on mRNA expression of genes of interest encoding inflammatory or oxidative markers. mRNA expression is evaluated by quantitative RT-PCR in HUVEC after 6 h of TNFα stimulation. Data are means±S.D. (n=3). Statistical analysis: one way ANOVA followed by Bonferroni, Versus CTL NS p>0.05, * p<0.05, ** p<0.01, *** p<0.001; Versus TNFα $ p<0.05, $$ p<0.01, $$$ p<0.001.
HUVEC are seeded at 67,500 cells/flask in gelatin-coated T25 in EGM. After 4 days, cell medium is replaced by EBM containing or not containing Compound 3 at different concentrations. After 1 h of preincubation, 1 ng/ml TNFα is added or is not into the T25 flasks. 6 h after, cell medium is discarded and cells are washed twice with PBS. Total RNA extraction is performed by using QIAGEN RNeasy mini Kit according to the protocol provided by the manufacturer (QIAGEN). RNA concentration for each sample is determined by Nanodrop Spectrophotometer ND-100 (ISOGEN, Life Science). Reverse transcription was performed using Transcriptor First Strand cDNA Synthesis Kit Roche (Roche Applied Science). Transcript levels are determined by quantitative reverse transcription polymerase chain reaction (qRT-PCR). cDNA obtained by reverse transcription of total RNA are diluted 100 times and 5 μl are mixed with 12.5 μl of Fast start Universal SYBRGreen Master (Roche), 2.5 μl MilliQ water, 2.5 μl of diluted primer forward and 2.5 μl of diluted primer reverse to have an optimal and final concentration of 300 nM or 900 nM. PCRs are carried out in a real-time PCR cycler (Applied Biosystems 7900HT Fast Real-time PCR System): a hot start at 95° C. for 5 min is followed by 40 cycles at 95° C. for 15 s and 65° C. for 1 min. Samples are compared using the relative cycle threshold (Ct) method. To normalize the load of cDNA for each sample, RPL13 is used as the endogenous standard. Primer sequences are listed below.
List of primers used in real time RT-PCR.

[2] = test system: 6-keto PGF1α secretion by HUVEC; experiment: 6-keto PGF1α EIA, secretion by HUVEC; type: cell-based, human; details: HUVEC 6 h
Description: 6-ketoPGF1α secretion is evaluated using a specific EIA assay. Results are expressed in picograms of 6-ketoPGF1α reported to micrograms of proteins measured by the Folin method on cell lysates. Data are means±S.D. (n=3). Statistical analysis: one way ANOVA followed by Bonferroni, Versus CTL, * p<0.05.
HUVEC are seeded at 25,000 cells/well on gelatin-coated 24-well plate (Corning) in EGM. After 48 h, cell medium is replaced by EBM containing or not containing Compound 3 at different concentrations. After 1 h of preincubation, 1 ng/ml TNFα is added or is not added to the wells. 6 h after adding TNFα, medium of each well is collected and cell lysis is performed in NaOH 0.5 N for 30 min. PTX3 secretion in the incubation medium is assayed using specific ELISAs (#DPTX30, Quantikine, R&D Systems, USA) according to the procedure provided by the supplier. 6-ketoPGF1α levels in cell culture media are determined using a competitive assay (#515211, Cayman, USA). Results are expressed in picograms of PTX3 or 6-ketoPGF1α reported to micrograms of proteins measured by the Folin method (Folin-Ciocalteu's phenol reagent, Merck, Germany) in cell lysates.

[3] = test system: human coronary artery smooth muscle cells; experiment: Human coronary artery smooth muscle cell proliferation (WST-1); type: cell-based; details: growth factor media; Compound 3 50 nM, 500 nM, 5 μM added 1 h before U46619; 48 h; WST-1
Description: Human coronary artery SMC is cultured in SmGM2 kit medium. At 80% confluence, the SMCs are trypsinized and resuspended in either DMEM supplemented with 2% FCS (“low serum media”), or in SmGM2 kit medium containing 5% FCS, 2 ng/ml FGF, 0.5 ng/ml EGF, 5 μg/ml insulin (“growth factor media”). Subsequently, 5000 cells in 200 μL are added to each well in a 96-well plate and left to adhere overnight. Either vehicle or Compound 3 (50 nM, 500 nM, 5 μM) is added to the wells 1 h before U 46619 at different concentrations (0.1 nM to 10 μM) and incubated for another 48 h. All experiments are repeated 3-5 times for each experimental condition.
Cell proliferation is evaluated using WST-1 reagent according to the manufacturer's instructions. In brief, after replacement of phenol red containing media by 200 μL transparent serum-supplemented DMEM, 10 μL of diluted WST-1 reagent is added to each well at the end of the 48 h incubation period. After 1 h incubation at 37° C., the absorbance of the formazan dye formed is measured at 440 nm using a microplate reader.
All results are expressed as mean±SE. Statistically significant differences are determined by a one-way analysis of variances, followed by Holm-Sidak post hoc test, for multiple comparisons, using Sigma Stat software. A P value of less than 0.05 is considered significant.

[4] = from 100 nM, not increased at 300 nM and 600 nM

CC(C)(C)N.O=C(O)CC/C=C\C[C@@H]1CO[C@H](c2ccccc2Cl)O[C@@H]1c1ccccc1O [Compound 3, tert-butylammonium (Z)-6-((2S,4S,5R)-2-(2-chlorophenyl)-4-(2-hydroxyphenyl)-1,3-dioxan-5-yl)hex-4-enoate]
ICAM-1 mRNA expression induced by TNFα ([1]; 10 nM): no effect
PTX3 mRNA expression induced by TNFα ([1]; 10 nM): no effect
ICAM-1 mRNA expression induced by TNFα [1, 4]: significant decrease
PTX3 mRNA expression induced by TNFα [1, 4]: significant decrease
mRNA expression of all genes of interest (COX-2, IL-6, IL-8, ICAM-1, VCAM-1, PTX3, MCP-1) ([1]; Compound 3 at the highest concentration, without TNFα): no effect
6-keto PGF1α secretion ([2]; 600 nM Compound 3 together with 1 ng/ml TNFα): significant increase
6-keto PGF1α secretion ([2]; Compound 3 alone, without TNFα): do not increase
SMC proliferation induced by U46619 [3]: significantly and concentration-dependently inhibits
